Read-outs that look alike come from different tables or passages of the source.
Legend:
[1] = test system: MDA-231 human breast cancer cells; assay: AMF-stimulated cell motility; type: cell-based; conditions: overnight exposure; data not shown
[2] = test system: SKBR human breast cancer cells; assay: AMF-stimulated cell motility; type: cell-based; conditions: overnight exposure; data not shown
[3] = test system: cell adhesion to fibronectin; assay: Cell adhesion to fibronectin; type: cell-based; conditions: data not shown
Experimental: (§1) Cells were preincubated with compound 1 (0.03-10 μg/mL) for periods of 2 to 48 hr prior to the adhesion assay. In addition, compound 1 remained present during the assay. […] Maximal inhibition of adhesion was observed following overnight exposure of the cells to compound 1.

CHOm5 cells = assay: Carbachol-stimulated arachidonic acid release; type: cell-based, Chinese hamster
Source text: This example illustrates the effect of selected compounds on the release of arachidonic acid from carbachol-stimulated CHOm5 cells. Carbachol is a muscarinic agonist which in the muscarinic receptor transfected CHO cells stimulates the activation of phospholipase A2, resulting in arachidonic acid release and metabolism. Downstream metabolites of arachidonic acid, prostaglandins and leukotrienes are also second messengers.
The effect of compound 1 on arachidonic acid release from CHOm5 cells was determined by incubating the cells to isotopic equilibrium with labelled arachidonic acid, then washing the cells twice with 1 mL of serum-free media supplemented with 20 mM HEPES and 0.2% bovine serum albumin (fatty acid free) to trap the unincorporated labelled arachidonic acid, and then simultaneously adding carbachol (100 μM) and increasing concentrations of 1. After 15 min, the reaction was stopped by removing the incubation media which was then centrifuged at 10,000×g to eliminate any nonadherent cells.

[4] = test system: OVCAR3 human ovarian cancer; assay: Survival after intraperitoneal treatment; type: in vivo, nude mice; conditions: 50 mg/kg/d ip
Source text: This example illustrates the effect of compound 1 on the survival of nude mice. The mice had been intraperitoneally injected with OVCAR3 human ovarian cancer cells followed, after three weeks, by intraperitoneal injection of 1.
The OVCAR3 human ovarian cancer animal model accurately approximates the clinical presentation of stage III-IV ovarian cancer of peritoneal carcinomatosis. Untreated, OVCAR3 tumor is lethal to nude mice.
Six-week-old nude mice were inoculated intraperitoneally with 3.4×10^7 OVCAR3 human ovarian cancer cells. After a three week period, all animals had grossly distended abdomens due to OVCAR3 ascites. Two groups of animals (four each) were paired for relative severity of ascites and treatment was initiated. Compound 1, 50 mg/kg/d in 60% DMSO (200 μL aliquot) or a vehicle alone, was administered via daily intraperitoneal injection. Overall survival from start of treatment was the study endpoint. Relative survival improvement was calculated as mean treatment group survival divided by mean control group survival.

5R cells [5] = assay: [3H]thymidine incorporation; type: cell-based, rat; conditions: 0-10 μg/mL, 24 hr
Experimental: (§2) Proliferation: Two independent methods were used to determine the effect of various compounds on cellular proliferation. The first method utilized [^3 H]thymidine labelling and was performed using A2058, 5R, OVCAR3, and MDA-231 cells. Because the potential effect of compound 1 on thymidine metabolism was unknown, a clonogenic assay was also used. This assay utilized crystal violet nuclear staining.
For the thymidine incorporation assay, an initial aliquot of 15,000 cells was plated in 96 well plates. The cells were grown to subconfluence, serum-starved, then fed with serum-containing media to which incremental doses of compound 1 (0-10 μg/mL) were added. After 24 hr, the cells were pulsed with [^3 H]thymidine (0.5 μCi/well) for 2 hr. Trichloroacetic acid was added to precipitate […] [^3 H]thymidine. After removal, ice cold ethanol/diethyl ether was added to precipitate cellular nucleic acids. The residue was solubilized with 0.2M NaOH and [^3 H]thymidine incorporation was determined by liquid scintillation counting. Inhibition of thymidine uptake was calculated as a percent of untreated control cell incorporation of labelled thymidine. As FIG. 4 indicates, de novo DNA synthesis was inhibited in all of the tumor cell lines. Maximal inhibition (80%) was found with the 5R cells.

OVCAR3 cells = assay: Oral treatment of intraperitoneal xenografts; type: in vivo, nude mice
A2058 cells = assay: Type IV collagen-stimulated motility; type: cell-based, human; conditions: data not shown
5R cells [6] = assay: Clonogenic (crystal violet) proliferation assay; type: cell-based, rat; conditions: 0-10 μg/mL, 96 hr
Experimental: as §2
For the clonogenic assay, aliquots of 50,000 cells per well (24 well plates) were grown under standard tissue culture conditions in the presence of increasing doses or test compound (0-10 μg/mL) or vehicle control. After 96 hr, the cells were gently washed with PBS, fixed, and stained with 0.5% crystal violet nuclear stain in 20% methanol. Excess stain was removed with tap water and bound stain was eluted with an equal volume solution of 01N sodium citrate (pH 4.2) and absolute ethanol. Optical density (O.D.) of eluted crystal violet stain was determined at 540 nm. The results of dose-dependent inhibition of tumor cell proliferation by compound 1 are shown in FIG. 5, in which the data are expressed as percent of untreated control cell proliferation for each cell type. The degree of inhibition varied with the cell type and was maximal (76%) for the A2058 cell line.

[7] = test system: T-type voltage gated calcium channels; conditions: Hupe, et al.; cited from earlier work
A2058 or 5R cells = assay: Cell spreading; type: cell-based
Experimental: as §1

A2058 and 5R cells = assay: Reversibility of inhibition of tumor cell adhesion; type: cell-based; conditions: for activity at 1 µg/mL / activity at 5 µg/mL: Homo sapiens, read-out: Adhesion (% of control)
Experimental: (§3) An adhesion assay was developed using tissue culture plastic petri dishes as the substrate. Aliquots of cells treated similarly to those in the cell motility assay were plated in triplicate onto the dishes and incubated for 90 rain at 37° C. Cells which were either poorly adherent or nonadherent were gently washed off with PBS. The remaining cells were stained with Diff Quik™ (from Baxter Scientific Products, McGaw Park. Ill., USA). Adherence was quantitated using laser densitometry and values were calculated as a percentage of the control adherence.
As with cell motility, the effect of compound 1 on cell adhesion is reversible. A2058 and 5R cells were treated as above for testing the reversibility of cell motility. The resulting "treated" cells (±), "washout" cells (±), and "control" cells were then subjected to the adhesion assay.

5R cells [8] = assay: Cell adhesion to tissue culture plastic; type: cell-based, rat; conditions: 0.03-10 μg/mL, 2 to 48 hr preincubation
Experimental: as §3, §1

NC(=O)c1nnn(Cc2cc(Cl)c(C(=O)c3ccc(Cl)cc3)c(Cl)c2)c1N [Compound 1]
motile response to AMF [1]: inhibited
motile response to AMF [2]: inhibited
cell adhesion to fibronectin [3]: decreased cell adhesion
IC50 (CHOm5 cells; Cricetulus griseus, 0.25 h, carbachol 100 μM, 15 min): 5.2 ± 0.8 µM
Arachidonic Acid Release (% of Control) (CHOm5 cells; Table K): 50.9 ± 9 % of Control
increase of overall survival [4]: 220%
overall survival from start of treatment ([4]; control 7.25±4.4 days): 16.0 ± 2.5 days
maximal inhibition of de novo DNA synthesis ([3H]thymidine incorporation) (5R cells [5]): 80%
time to development of ascites (OVCAR3 cells; 100 mg/kg daily oral): Statistically significant differences
tumor necrosis and pulmonary micrometastases (histology) (OVCAR3 cells; 100 mg/kg daily oral): induced tumor necrosis and inhibition of pulmonary micrometastases
volume of ascites at necropsy (OVCAR3 cells; 100 mg/kg daily oral): Statistically significant differences
progression of OVCAR3 xenografts (OVCAR3 cells; FIG. 16B, 100 mg/kg by gavage): inhibits progression of OVCAR3 xenografts
motility due to type IV collagen stimulation (A2058 cells): inhibited motility
inhibition of tumor cell proliferation (5R cells [6]): dose dependent inhibition of tumor cell proliferation
inhibition of T-type voltage gated calcium channels [7]: inhibit
cell spreading (A2058 or 5R cells): not markedly decreased
reversibility of adhesion inhibition (A2058 and 5R cells): reversible
activity at 1 µg/mL (A2058 and 5R cells; A2058, 1 μg/mL (+/-)): 106%
activity at 1 µg/mL (A2058 and 5R cells; A2058, 1 μg/mL (-/+)): 33%
activity at 5 µg/mL (A2058 and 5R cells; A2058, 5 μg/mL (+/-)): 96%
activity at 5 µg/mL (A2058 and 5R cells; A2058, 5 μg/mL (-/+)): 37%
inhibition of cell adhesion (5R cells [8]): dose-dependent inhibition of cell adhesion
